# Literature values as cited in patent publication US7067320B2, “Sensor for luminescense-optical determination of an analyte” (Roche Diagnostics Operations, Inc., priority 2000, dated 2006).
# Conditions: not given
row,Molecule,pKa
1,O=S1(=O)OC(c2cc(Br)c(O)c(Br)c2)(c2cc(Br)c(O)c(Br)c2)c2ccccc21 [Bromophenol blue],3.8
2,Cc1c(C2(c3cc(C(C)C)c(O)c(Br)c3C)OS(=O)(=O)c3ccccc32)cc(C(C)C)c(O)c1Br [Bromothymol blue],6.7
3,O=C1OC(c2ccc(O)c3ccccc23)(c2ccc(O)c3ccccc23)c2ccccc21 [Naphthol-phthalein],6.7

# The next lines start with the values.
row,pKa,Molecule
1,8.0,Cc1ccc(O)c(N=Nc2c(O)cc(S(=O)(=O)O)c3ccccc23)c1 [Calmagit]
2,7.1,O=C1C=CC(=Nc2ccc(O)cc2)C=C1Cl [o-chlorophenol-indophenol]
3,7.6,Dibromoxylenol blue

# Same assay, conditions: second value printed in the same cell
row,pKa,Molecule
1,7.9,O=C1OC(c2ccc(O)c3ccccc23)(c2ccc(O)c3ccccc23)c2ccccc21 [Naphthol-phthalein]
